Columns and labels:
Format in all cases: cell-based, human
[1] = test system: PSG expression in endothelial cells from vein; assay: Microarray analysis of PSG gene expression in saphenous vein endothelial cells after atherogenic stimuli; details: after treatment
Excerpt: (§1) Vein and artery respond differently to atherogenic lesion under different conditions. […] However, venous bypass grafts can develop accelerated atherosclerosis in vein graft disease for patients after bypass surgery. […] This could possibly be explained by the different roles of endothelial and smooth muscle cells in the development of atherosclerosis. Endothelial cells (EC) are critical in the initiation of atherosclerosis, while smooth muscle cells (SMC) are closely related to the evolution of the atheroma. The global gene expression responses to various atherogenic stimulations between human venous and arterial cells have been determined to identify genes that may contribute to different susceptibilities to atherosclerosis.
When gene expression of untreated saphenous vein endothelial cells (SVEC) and coronary artery endothelial cells (CAEC) were compared by microarray analysis, five isoforms (PSG1, PSG3, PSG6, PSG7 and PSG9) out of 9 isoforms in the arrays were higher (>1.5 fold and P<0.005) in SVEC than CAEC. In untreated saphenous vein smooth muscle cells (SVSM) and coronary artery smooth muscle cells (CASM), all 9 isoforms of PSGs in the arrays are expressed higher in SVSM than CASM (See Table 1). […]

[2] = test system: PSG expression in coronary arterial smooth muscle cells; assay: Microarray analysis of PSG gene expression in coronary artery smooth muscle cells after atherogenic stimuli; details: for PSG1 expression response / PSG 2 expression / PSG6 expression: SMCs from coronary artery; for PSG expression: coronary arterial smooth muscle cells, after treatment
Excerpt: as §1
(§2) When gene expression of untreated saphenous vein endothelial cells (SVEC) and coronary artery endothelial cells (CAEC) were compared by microarray analysis, five isoforms (PSG1, PSG3, PSG6, PSG7 and PSG9) out of 9 isoforms in the arrays were higher (>1.5 fold and P<0.005) in SVEC than CAEC. In untreated saphenous vein smooth muscle cells (SVSM) and coronary artery smooth muscle cells (CASM), all 9 isoforms of PSGs in the arrays are expressed higher in SVSM than CASM (See Table 1). It is unlikely a false positive result from arrays, since the result was obtained from 4 separate primary cultures from two-donors and more than 5 microarray data sets, and multiple PSG isoforms had similar changes. […] In basal state, PSG expression is higher in vein than artery.
Oxidized LDL (OxLDL), a key atherogenic factor, pro-inflammatory cytokines TNFα and IL1β, as well as cytokines regulating cell proliferation, differentiation and migration like PDGF and TGFβ all up-regulate PSG expression in coronary arterial smooth muscle cells.

[3] = test system: PSG expression in endothelial cells from artery; assay: Microarray analysis of PSG gene expression in coronary artery endothelial cells after atherogenic stimuli; details: after treatment
[4] = test system: PSG expression in SMCs from saphenous vein; assay: Microarray analysis of PSG gene expression in saphenous vein smooth muscle cells after atherogenic stimuli
Excerpt: as §1, §2
The gene expression of PSG isoforms is quite different between the two SMCs. In SMCs from saphenous vein, TGFβ and TNFα down-regulate the expression of PSG1. TGFβ also down-regulates PSG9.

Row | Substance | PSG expression [1] | PSG1 expression response [2] | PSG 2 expression [2] | PSG6 expression [2] | PSG expression [2] | PSG expression [3] | PSG1 expression [4] | PSG9 expression [4]
1 | IL1β: pro-inflammatory cytokine | No significant change | opposite responses | up-regulated | up-regulated | up-regulate | No significant change | – | –
2 | PDGF | – | – | up-regulated | up-regulated | up-regulate | – | – | –
3 | TGFβ | – | opposite responses | up-regulated | up-regulated | up-regulate | – | down-regulate | down-regulates
4 | TNFα | No significant change | – | up-regulated | up-regulated | up-regulate | No significant change | down-regulate | –

Reference: US20060063162A1, “Biological marker for inflammation” (priority 2004, published 2006)
